We go through four compounds from ChEMBL document CHEMBL2407022, “Advancement of Imidazo[1,2-a]pyridines with Improved Pharmacokinetics and Nanomolar Activity Against Mycobacterium tuberculosis” (ACS Med Chem Lett, 2013).

Type in all cases: functional
Conditions in all cases: 336 h

In test [1] the test system is Mycobacterium tuberculosis. Put plainly: Antimycobacterial activity against isoniazid, rifampin, ethambutol, kanamycin and ofloxacin-resistant Mycobacterium tuberculosis after 14 days.
In test [2] the test system is Mycobacterium tuberculosis. Description: Antimycobacterial activity against isoniazid, rifampin, ethambutol, streptomycin, kanamycin and ofloxacin-resistant Mycobacterium tuberculosis after 14 days.
The test system of test [3] is Mycobacterium tuberculosis. Put plainly: Antimycobacterial activity against isoniazid, rifampin, ethambutol, kanamycin and rifabutin-resistant Mycobacterium tuberculosis after 14 days.

Values after ≈ are worked out from the molar mass of the structure shown.

Turning to `Cc1ccn2c(C(=O)NCc3ccc(Oc4ccc(F)cc4)cc3)c(C)nc2c1`, the MIC99 (as a rule, an inhibitory concentration at the 99% level, which refers to growth in some studies and to a panel of isolates in others) in test [1] was less than 0.03 µM; in test [2], less than 0.03 µM; in test [3], 0.8 µM (≈ 0.312 µg/mL).
`O=[N+]([O-])c1cn2c(n1)OC[C@@H](OCc1ccc(OC(F)(F)F)cc1)C2` [PRETOMANID]: the MIC99 in test [1] stood at 0.2 µM (≈ 0.0719 µg/mL); in test [2], 0.9 µM (≈ 0.323 µg/mL); in test [3], 0.5 µM (≈ 0.18 µg/mL).
Turning to `Cc1ccn2c(C(=O)NCc3ncc(C(F)(F)F)cc3Cl)c(C)nc2c1`, the MIC99 in test [2] is 0.8 µM (≈ 0.306 µg/mL); in test [3], 13 µM (≈ 4.98 µg/mL).
As to `Cc1ccc2nc(C)c(C(=O)NCc3ccccc3)n2c1`, the MIC99 in test [1] was less than 0.04 µM; in test [2], less than 0.04 µM; in test [3] it was 2.3 µM (≈ 0.642 µg/mL).
